The target of one test is T1, Interstitial collagenase (Homo sapiens, UniProt P03956).
T1 sequence (P03956 whole entry): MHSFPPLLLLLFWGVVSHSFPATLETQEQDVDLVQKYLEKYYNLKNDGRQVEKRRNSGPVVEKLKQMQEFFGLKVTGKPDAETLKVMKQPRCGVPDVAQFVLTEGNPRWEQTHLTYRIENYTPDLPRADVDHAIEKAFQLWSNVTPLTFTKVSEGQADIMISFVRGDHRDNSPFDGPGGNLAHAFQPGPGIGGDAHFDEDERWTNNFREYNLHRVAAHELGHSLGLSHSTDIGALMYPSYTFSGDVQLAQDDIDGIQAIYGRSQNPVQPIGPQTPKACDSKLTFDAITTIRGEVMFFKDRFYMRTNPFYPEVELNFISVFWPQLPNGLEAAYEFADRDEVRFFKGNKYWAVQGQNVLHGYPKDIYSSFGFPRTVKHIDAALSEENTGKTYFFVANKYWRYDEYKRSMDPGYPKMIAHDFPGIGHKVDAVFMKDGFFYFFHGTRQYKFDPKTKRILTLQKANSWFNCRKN
Nature of the test: Inhibition of human fibroblast collagenase, matrix metalloprotease-1.

For another test, the target named is T2, Matrilysin (Homo sapiens, UniProt P09237).
T2 sequence (P09237 whole entry): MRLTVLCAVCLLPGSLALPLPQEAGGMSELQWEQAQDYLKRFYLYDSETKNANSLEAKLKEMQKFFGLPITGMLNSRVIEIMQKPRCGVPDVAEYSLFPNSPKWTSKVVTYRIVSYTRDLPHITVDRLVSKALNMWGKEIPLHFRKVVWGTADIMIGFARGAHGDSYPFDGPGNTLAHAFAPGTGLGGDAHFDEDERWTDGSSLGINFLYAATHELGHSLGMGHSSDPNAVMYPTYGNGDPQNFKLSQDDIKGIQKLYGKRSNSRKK
Nature of the test: Inhibition of matrilysin, matrix metalloprotease-7.

In a further test the target is Stromelysin-1 (Homo sapiens, UniProt P08254). Nature of the test: Inhibition of human fibroblast stromelysin, matrix metalloprotease-3.
Chain of Stromelysin-1 (P08254 whole entry): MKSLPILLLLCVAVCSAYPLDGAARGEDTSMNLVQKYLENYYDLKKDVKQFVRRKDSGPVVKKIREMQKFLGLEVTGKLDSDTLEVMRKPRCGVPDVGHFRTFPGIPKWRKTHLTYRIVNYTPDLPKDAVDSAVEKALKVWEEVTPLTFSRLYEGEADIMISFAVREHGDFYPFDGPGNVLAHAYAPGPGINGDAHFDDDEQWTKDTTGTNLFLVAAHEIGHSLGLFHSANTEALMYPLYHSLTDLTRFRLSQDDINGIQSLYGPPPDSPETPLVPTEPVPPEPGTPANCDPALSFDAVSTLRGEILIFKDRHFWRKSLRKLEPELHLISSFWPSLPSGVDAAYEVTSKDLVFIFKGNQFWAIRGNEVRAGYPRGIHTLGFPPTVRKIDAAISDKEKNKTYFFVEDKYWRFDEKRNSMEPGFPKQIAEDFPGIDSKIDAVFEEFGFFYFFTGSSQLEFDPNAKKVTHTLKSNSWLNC

The structures appear in SMILES notation.

As for `COC(=O)c1ccc(NC(=O)[C@H](CC(C)C)NC(=O)[C@@H](CC(=O)NO)CC(C)C)cc1`, the IC50 against Interstitial collagenase stood at 6.9 nM; against Matrilysin, 0.23 nM; on Stromelysin-1 it was 0.8 nM.

Regarding `CC(C)C[C@H](CC(=O)NO)C(=O)N[C@@H](Cc1c[nH]c2ccccc12)c1nc2ccccc2[nH]1`, the IC50 against Interstitial collagenase was 22 nM; on Matrilysin it was 10 nM; on Stromelysin-1 it was 29 nM.

For `CC(C)C[C@H](CC(=O)NO)C(=O)N[C@@H](CC(C)C)c1nc2cc(C(F)(F)F)ccc2[nH]1`, the IC50 was found to be 7 nM at Interstitial collagenase, 10 nM on Matrilysin and 20 nM against Stromelysin-1.

As for `COC(=O)c1ccc2nc([C@H](CC(C)C)NC(=O)[C@@H](CC(=O)NO)CC(C)C)[nH]c2c1`, the IC50 against Interstitial collagenase came to 3 nM; at Matrilysin, 1 nM; against Stromelysin-1, 5 nM.

With `COc1ccc2nc([C@H](CC(C)C)NC(=O)[C@@H](CC(=O)NO)CC(C)C)[nH]c2c1`, the IC50 came to 6 nM against Interstitial collagenase, 10 nM against Matrilysin and 30 nM at Stromelysin-1.

`CC(C)C[C@H](CC(=O)NO)C(=O)N[C@@H](CC(C)C)c1nc2cc(Cl)c(Cl)cc2[nH]1`: the IC50 against Interstitial collagenase is 40 nM; at Matrilysin, 33 nM; at Stromelysin-1, 68 nM.

In the case of `CC(C)C[C@H](CC(=O)NO)C(=O)N[C@@H](CC(C)C)c1ncc[nH]1`, the IC50 at Interstitial collagenase stood at 9 nM; against Matrilysin, 50 nM; against Stromelysin-1, 320 nM.

For the molecule `CC(C)C[C@H](NC(=O)[C@@H](CC(=O)NO)C1CCCCC1)c1nc(-c2ccccc2)c[nH]1`, the IC50 stood at 480 nM against Interstitial collagenase, 3.1 nM against Matrilysin and 5900 nM at Stromelysin-1.

As for `CC(C)C[C@H](CC(=O)NO)C(=O)N[C@@H](CC(C)C)c1nc(-c2ccccc2)c[nH]1`, the IC50 against Interstitial collagenase came to 170 nM; against Matrilysin, 1 nM; on Stromelysin-1, 112 nM.

For the molecule `CC(C)C[C@H](CC(=O)NO)C(=O)N[C@@H](Cc1c[nH]c2ccccc12)c1ncc[nH]1`, the IC50 against Interstitial collagenase amounted to 18 nM; on Matrilysin it was 18 nM; at Stromelysin-1 it was 280 nM.

On to `COC(=O)c1[nH]c([C@H](CC(C)C)NC(=O)[C@@H](CC(=O)NO)CC(C)C)nc1-c1ccccc1`, for which the IC50 at Interstitial collagenase was 3500 nM; at Matrilysin, 70 nM; on Stromelysin-1 it was 320 nM.

Consider `CC(C)C[C@H](CC(=O)NO)C(=O)N[C@@H](CC(C)C)c1nc2ccccc2[nH]1`, for which the results for the IC50 against Interstitial collagenase, at Matrilysin and at Stromelysin-1 were 29 nM, 2 nM and 8 nM, respectively.

For the origin of these results see ChEMBL document CHEMBL1149961, “Design, synthesis, activity, and structure of a novel class of matrix metalloproteinase inhibitors containing a heterocyclic P2-P3 amide bond isostere” (Bioorg Med Chem Lett, 1996).
